Experimental data taken from patent US6762178B2, “Acetylenic aryl sulfonamide and phosphinic acid amide hydroxamic acid TACE inhibitors” (Wyeth Holdings Corporation, priority 1999, dated 2004).
pIC50: −log10 of the molar value.

Columns and labels:
THP-1 cells = assay: THP-1 soluble protein assay; assay type: cell-based, human; details: LPS-stimulated THP-1 cells
Text: In addition, non-stimulated THP-1 cells shed both the p75/80 and the p55/60 receptors over time. The release of membrane bound TNF-α and possibly TNF-R p75/80 and TNF-R p55/60, but not IL-8, is mediated by an enzyme called TNF-a converting enzyme or TACE.
THP-1 cells (from ATCC) are a human monocytic cell line which were obtained from the peripheral blood of a person with acute monocytic leukemia. They can be grown in culture and differentiated into macrophage like cells by stimulation with mitogens.
Each vial of cells are cultured for about two weeks prior to being used for an assay and then are used for only 4 to 6 weeks to screen compounds.
Cell exposure to DMSO was limited to 0.1% final concentration. […] Compounds can be evaluated for their effect on basal (non-stimulated) shedding of the receptors by replacing the LPS with […] of THP-1 media. Plates are placed into an incubator set at 5% CO2 and at 37° C. […]
In addition, at the 24 hours timepoint, and the cells for each treatment group are collected by resuspension in 500 μl/well of THP-1 media and transferred into a FACS tube. […] The samples are run on a Becton Dickinson FaxCaliber FLOW cytometry machine and the amount of dye taken up by each cell is measured in the high red wavelength (FL3). […] The percent of live cells is calculated by the number of cells not stained with PI, divided by the total number of cells in the sample. […]

MMP-9 = MMP-9 (Homo sapiens, UniProt P14780); assay: MMP-9 inhibition (thiopeptide or fluorescent peptide substrate); assay type: biochemical
Procedure: (§1) The enzyme activity is measured by the rate of the color increase. The thiopeptide substrate is made up fresh as a 20 mM stock in 100% DMSO and the DTNB is dissolved in 100% DMSO as a 100 mM stock and stored in the dark at room temperature. Both the substrate and DTNB are diluted together to 1 mM with substrate buffer (50 mM HEPES pH 7.5, 5 mM CaCl2) before use. The stock of enzyme is diluted with buffer (50 mM HEPES, pH 7.5, 5 mM CaCl2, 0.02% Brij) to the desired final concentration.
(§2) Alternatively, a fluorescent peptide substrate is used. In this test procedure, the peptide substrate contains a fluorescent group and a quenching group. Upon cleavage of the substrate by an MMP, the fluorescence that is generated is quantitated on the fluorescence plate reader. The assay is run in HCBC assay buffer (50 mM HEPES, pH 7.0, 5 mM Ca^+2, 0.02% Brij, 0.5% Cysteine), with human recombinant MMP-1, MMP-9, or MMP-13. The substrate is dissolved in methanol and stored frozen in 1 mM aliquots. For the assay, substrate and enzymes are diluted in HCBC buffer to the desired concentrations. […]
(§3) For either the thiopeptide or fluorescent peptide test procedures, the slope of the line is calculated and represents the reaction rate. […] The mean (x±sem) of the control rate is calculated and compared for statistical significance (p<0.05) with drug-treated rates using Dunnett's multiple comparison test.

[1] = biological target: TNF-α converting enzyme (TACE) (Homo sapiens, UniProt P78536); assay: TACE inhibition (fluorescent peptidyl substrate); assay type: biochemical
Procedure: Using 96-well black microtiter plates, each well receives a solution composed of 10 μL TACE (final concentration 1 μg/mL), 70 μL Tris buffer, pH 7.4 containing 10% glycerol (final concentration 10 mM), and 10 μL of test compound solution in DMSO (final concentration 1 μM, DMSO concentration <1%) and incubated for 10 minutes at room temperature. The reaction is initiated by addition of a fluorescent peptidyl substrate (final concentration 100 μM) to each well and then shaking on a shaker for 5 sec.
The reaction is read (excitation 340 nm, emission 420 nm) for 10 min. and the increase in fluorescence over time is plotted as a linear line. The slope of the line is calculated and represents the reaction rate.
The mean (x±sem) of the control rate is calculated and compared for statistical significance (p<0.05) with drug-treated rates using Dunnett's multiple comparison test.

MMP-13 = MMP-13 (Homo sapiens, UniProt P45452); assay: MMP-13 inhibition (thiopeptide or fluorescent peptide substrate); assay type: biochemical
Procedure: as §1, §2, §3

MMP-1 = biological target: T1, MMP-1 (Homo sapiens, UniProt P03956); assay: MMP-1 inhibition (thiopeptide or fluorescent peptide substrate); assay type: biochemical
T1 sequence (P03956 100-469): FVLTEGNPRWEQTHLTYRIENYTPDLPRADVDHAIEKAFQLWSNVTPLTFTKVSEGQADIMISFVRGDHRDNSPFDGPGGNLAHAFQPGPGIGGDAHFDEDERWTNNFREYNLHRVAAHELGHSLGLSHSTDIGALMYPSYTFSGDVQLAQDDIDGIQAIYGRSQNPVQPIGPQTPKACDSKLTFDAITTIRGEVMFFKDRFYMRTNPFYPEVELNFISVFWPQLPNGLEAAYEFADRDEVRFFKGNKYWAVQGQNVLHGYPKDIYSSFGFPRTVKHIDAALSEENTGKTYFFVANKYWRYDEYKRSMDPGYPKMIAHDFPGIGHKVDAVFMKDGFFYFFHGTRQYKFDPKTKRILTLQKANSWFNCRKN
Procedure: as §1, §2, §3

Sequence of TNF-α converting enzyme (TACE) (P78536 215-824, species assumed): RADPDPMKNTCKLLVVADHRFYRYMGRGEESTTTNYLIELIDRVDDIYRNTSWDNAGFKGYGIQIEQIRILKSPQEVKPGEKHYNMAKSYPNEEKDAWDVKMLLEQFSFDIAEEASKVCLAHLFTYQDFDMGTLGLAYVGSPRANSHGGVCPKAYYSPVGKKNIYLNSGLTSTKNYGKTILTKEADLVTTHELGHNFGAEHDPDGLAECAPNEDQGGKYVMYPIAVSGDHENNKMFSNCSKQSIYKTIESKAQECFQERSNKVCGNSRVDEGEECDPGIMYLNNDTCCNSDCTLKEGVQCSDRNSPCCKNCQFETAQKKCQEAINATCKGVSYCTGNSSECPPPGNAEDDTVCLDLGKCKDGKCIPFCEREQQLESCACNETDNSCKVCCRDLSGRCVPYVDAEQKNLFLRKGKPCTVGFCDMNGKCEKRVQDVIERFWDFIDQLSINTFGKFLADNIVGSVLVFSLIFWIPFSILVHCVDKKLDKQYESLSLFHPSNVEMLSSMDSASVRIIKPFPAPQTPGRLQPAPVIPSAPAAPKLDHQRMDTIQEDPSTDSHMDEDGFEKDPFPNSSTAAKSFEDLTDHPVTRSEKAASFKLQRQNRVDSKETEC
Sequence of MMP-9 (P14780 94-707): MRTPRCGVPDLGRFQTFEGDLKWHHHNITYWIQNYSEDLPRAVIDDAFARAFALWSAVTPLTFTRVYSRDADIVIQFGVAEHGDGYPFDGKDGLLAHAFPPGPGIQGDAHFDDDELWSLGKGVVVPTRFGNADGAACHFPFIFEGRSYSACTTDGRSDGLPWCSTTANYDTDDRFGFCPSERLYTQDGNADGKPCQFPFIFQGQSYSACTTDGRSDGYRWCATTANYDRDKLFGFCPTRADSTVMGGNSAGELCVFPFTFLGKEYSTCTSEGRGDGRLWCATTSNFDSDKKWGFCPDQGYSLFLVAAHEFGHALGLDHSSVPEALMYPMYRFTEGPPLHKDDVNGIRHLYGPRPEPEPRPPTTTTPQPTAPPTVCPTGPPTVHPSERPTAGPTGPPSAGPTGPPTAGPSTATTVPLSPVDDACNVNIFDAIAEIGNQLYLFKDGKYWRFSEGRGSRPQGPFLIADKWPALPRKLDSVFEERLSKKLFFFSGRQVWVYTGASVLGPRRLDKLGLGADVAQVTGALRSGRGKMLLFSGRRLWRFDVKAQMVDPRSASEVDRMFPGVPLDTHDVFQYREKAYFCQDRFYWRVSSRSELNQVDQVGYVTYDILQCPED

“5-Bromo-2-[(4-butoxy-benzenesulfonyl)-methyl-amino]-N-hydroxy-3-methyl-benzamide [Example 39]” was tested, and the “THP % Inhib. @ 3 μM” value (THP-1 cells) was 0%, the pIC50 (MMP-9) was 7.68 and the pIC50 [1] was 7.17. It also gave a pIC50 (MMP-13) of 7.17 and a pIC50 (MMP-1) of 5.60.
